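These data come from cells grown in 96-well plates and exposed to compound for 48 hours at five concentrations. Abbreviation: GI50, concentration required for 50% inhibition of growth. TGI is the concentration that stops growth completely.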
Tests used:
Assay in all cases: growth of human tumour cells (NCI), 48 h
786-0 renal = system: 786-0 renal
A498 renal = system: A498 renal
A549 NSCLC = system: A549 NSCLC
ACHN renal = system: ACHN renal
BT-549 breast = system: BT-549 breast
CAKI-1 renal = system: CAKI-1 renal
CCRF-CEM leukemia = system: CCRF-CEM leukemia
COLO 205 colon = system: COLO 205 colon
DU-145 prostate = system: DU-145 prostate
HCC-2998 colon = system: HCC-2998 colon
HCT-116 colon = system: HCT-116 colon
HCT-15 colon = system: HCT-15 colon
HL-60(TB) leukemia = system: HL-60(TB) leukemia
HOP-62 NSCLC = system: HOP-62 NSCLC
HOP-92 NSCLC = system: HOP-92 NSCLC
HS 578T breast = system: HS 578T breast
HT29 colon = system: HT29 colon
IGROV1 ovarian = system: IGROV1 ovarian
K-562 leukemia = system: K-562 leukemia
KM12 colon = system: KM12 colon
LOX IMVI melanoma = system: LOX IMVI melanoma
M14 melanoma = system: M14 melanoma
MALME-3M melanoma = system: MALME-3M melanoma
MCF7 breast = system: MCF7 breast
MDA-MB-231 breast = system: MDA-MB-231 breast
MDA-MB-435 = system: MDA-MB-435
MOLT-4 leukemia = system: MOLT-4 leukemia
NCI-H226 lung = system: NCI-H226 lung
NCI-H23 lung = system: NCI-H23 lung

COc1ccc(-c2c(-c3cc(OC)c(OC)c(OC)c3)nc3sc(C4CC4)nn23)cc1OC
GI50 (786-0 renal): 4.66 µM | TGI (786-0 renal): > 100 µM | GI50 (A498 renal): 0.75 µM | TGI (A498 renal): 7.84 µM | GI50 (A549 NSCLC): 8.29 µM | TGI (A549 NSCLC): > 100 µM | GI50 (ACHN renal): 2.99 µM | TGI (ACHN renal): 42.6 µM | GI50 (BT-549 breast): 10.2 µM | TGI (BT-549 breast): > 100 µM | GI50 (CAKI-1 renal): 0.943 µM | TGI (CAKI-1 renal): > 100 µM | GI50 (CCRF-CEM leukemia): 7.81 µM | TGI (CCRF-CEM leukemia): > 100 µM | GI50 (COLO 205 colon): 3.11 µM | TGI (COLO 205 colon): 20.2 µM | GI50 (DU-145 prostate): 51.3 µM | TGI (DU-145 prostate): > 100 µM | GI50 (HCC-2998 colon): 12.3 µM | TGI (HCC-2998 colon): > 100 µM | GI50 (HCT-116 colon): 4.79 µM | TGI (HCT-116 colon): > 100 µM | GI50 (HCT-15 colon): 2.42 µM | TGI (HCT-15 colon): 58.3 µM | GI50 (HL-60(TB) leukemia): 1.68 µM | TGI (HL-60(TB) leukemia): 41.6 µM | GI50 (HOP-62 NSCLC): 1.58 µM | TGI (HOP-62 NSCLC): > 100 µM | GI50 (HOP-92 NSCLC): 0.58 µM | TGI (HOP-92 NSCLC): 9 µM | GI50 (HS 578T breast): 4.19 µM | TGI (HS 578T breast): > 100 µM | GI50 (HT29 colon): 3.48 µM | TGI (HT29 colon): > 100 µM | GI50 (IGROV1 ovarian): 5.28 µM | TGI (IGROV1 ovarian): > 100 µM | GI50 (K-562 leukemia): 10 µM | TGI (K-562 leukemia): > 100 µM | GI50 (KM12 colon): 17.5 µM | TGI (KM12 colon): > 100 µM | GI50 (LOX IMVI melanoma): 3.27 µM | TGI (LOX IMVI melanoma): > 100 µM | GI50 (M14 melanoma): 6.42 µM | TGI (M14 melanoma): > 100 µM | GI50 (MALME-3M melanoma): 18.1 µM | TGI (MALME-3M melanoma): 75.2 µM | GI50 (MCF7 breast): 1.96 µM | TGI (MCF7 breast): > 100 µM | GI50 (MDA-MB-231 breast): 2.72 µM | TGI (MDA-MB-231 breast): > 100 µM | GI50 (MDA-MB-435): 6.81 µM | TGI (MDA-MB-435): > 100 µM | GI50 (MOLT-4 leukemia): 9.94 µM | TGI (MOLT-4 leukemia): 72 µM | GI50 (NCI-H226 lung): 16.3 µM | TGI (NCI-H226 lung): > 100 µM | GI50 (NCI-H23 lung): 11.6 µM

From PubChem BioAssay (NCI)
